Reference: PMC10477861, “Efficient Mining of Anticancer Peptides from Gut Metagenome” (Advanced Science, 2023)

How the values were obtained:
Details in all cases: 25 µM pACP, 24 h, maintenance medium 1% FBS, ratio of viability to vehicle (PBS), at least three technical repetitions
[1] = test system: LCC; assay: MTT primary screening of anticancer activity, LCC; type: cell-based
Excerpt: (§1) We successfully chemically synthesized 40 pACPs for the purpose of in vitro or in vivo characterization of their potential anticancer efficacy. In the initial step, we conducted an in vitro primary screen of these 40 pACPs using a panel of 16 different cancer cell lines, including four human CRC lines (HT29, Caco2, HCT116, and […]), as well as 12 other cancer models (Table S4, Supporting Information). We deliberately selected a diverse panel of cell lines to assess the effect of pACPs across various genetic backgrounds. Briefly, the cancer cells were cultured in specific media (details provided in the Experimental Section) and then treated with pACPs at a final concentration of 25 µM. Peptides with minimum effective inhibition concentrations >25 µM were considered non‐ACPs. After exposure to pACPs, the survival rate of the cancer cells was measured using the MTT assay. Remarkably, 39 out of the 40 pACPs (97.5%) induced at least 20% inhibition in at least one cell line (Figure 3a and Table S5, Supporting Information). […] Thus, our method successfully identified pACPs with a very high rate of anticancer effects across various cancer cell lines.
(§2) To evaluate the activity of the 40 potentially effective pACPs, a panel of 16 cancer cell lines was treated, including human CRC cell lines (HT29, Caco‐2, HCT116). Details of the cell lines used, respective media, and culture conditions were presented in Table S1 (Supporting Information). Once the cells reached 60% confluence, it was incubated with each candidate peptide at a concentration of 25 µM pACPs for 24 h. Concurrently, the complete medium was replaced with a maintenance medium containing only 1% FBS. Subsequently, the viability of each cell line using the MTT Cell Proliferation and Cytotoxicity Assay Kit according to the manufacturer's instructions was assessed. […] For the CRC cell line CT26, it was calculated the CC50 value using two peptides (pACP1780 and pACP2283) with relevant data presented in Table S6 (Supporting Information). The calculation was performed using an online tool: https://www.aatbio.com/tools/ic50‐calculator.

[2] = test system: Hela; assay: MTT primary screening of anticancer activity, Hela; type: cell-based, Human
Excerpt: as §1, §2

[3] = test system: EFM192A; assay: MTT primary screening of anticancer activity, EFM192A; type: cell-based
Excerpt: as §1, §2

[4] = test system: T47D; assay: MTT primary screening of anticancer activity, T47D; type: cell-based
Excerpt: as §1, §2

[5] = test system: SK-BR-3; assay: MTT primary screening of anticancer activity, SK-BR-3; type: cell-based
Excerpt: as §1, §2

[6] = test system: MCF7; assay: MTT primary screening of anticancer activity, MCF7; type: cell-based
Excerpt: as §1, §2

[7] = test system: CT26; assay: MTT primary screening of anticancer activity, CT26; type: cell-based, Murine
Excerpt: as §1, §2

[8] = test system: MDA-MB-468; assay: MTT primary screening of anticancer activity, MDA-MB-468; type: cell-based
Excerpt: as §1, §2

[9] = test system: MDA-MB-231; assay: MTT primary screening of anticancer activity, MDA-MB-231; type: cell-based
Excerpt: as §1, §2

[10] = test system: MDA-MB-436; assay: MTT primary screening of anticancer activity, MDA-MB-436; type: cell-based
Excerpt: as §1, §2

[11] = test system: HCT116; assay: MTT primary screening of anticancer activity, HCT116; type: cell-based, Human
Excerpt: as §1, §2

[12] = test system: Caco2; assay: MTT primary screening of anticancer activity, Caco2; type: cell-based, Human
Excerpt: as §1, §2

[13] = test system: HT29; assay: MTT primary screening of anticancer activity, HT29; type: cell-based, Human
Excerpt: as §1, §2

[14] = test system: BT474; assay: MTT primary screening of anticancer activity, BT474; type: cell-based
Excerpt: as §1, §2

[15] = test system: MDA-MB-453; assay: MTT primary screening of anticancer activity, MDA-MB-453; type: cell-based
Excerpt: as §1, §2

[16] = test system: B16; assay: MTT primary screening of anticancer activity, B16; type: cell-based, Mouse
Excerpt: as §1, §2

AAGVSIEIHISLTLFTQVKCVARSQCAAEGAGLRHIKVAALQSCSRRRAH [pACP2]
Survival rate of cancer cells in primary screening [1]: 1.00
Survival rate of cancer cells in primary screening [2]: 1.00
Survival rate of cancer cells in primary screening [3]: 1.00
Survival rate of cancer cells in primary screening [4]: 0.71
Survival rate of cancer cells in primary screening [5]: 1.00
Survival rate of cancer cells in primary screening [6]: 1.00
Survival rate of cancer cells in primary screening [7]: 1.00
Survival rate of cancer cells in primary screening [8]: 1.00
Survival rate of cancer cells in primary screening [9]: 1.00
Survival rate of cancer cells in primary screening [10]: 1.00
Survival rate of cancer cells in primary screening [11]: 1.00
Survival rate of cancer cells in primary screening [12]: 1.00
Survival rate of cancer cells in primary screening [13]: 1.00
Survival rate of cancer cells in primary screening [14]: 1.00
Survival rate of cancer cells in primary screening [15]: 1.00
Survival rate of cancer cells in primary screening [16]: 1.00

CRLCTHGNVSACVLGKNAVFSVSAHNSDCPQPTCDFSSPLEECLESS [pACP177]
Survival rate of cancer cells in primary screening [1]: 1.00
Survival rate of cancer cells in primary screening [2]: 1.00
Survival rate of cancer cells in primary screening [3]: 1.00
Survival rate of cancer cells in primary screening [4]: 0.59
Survival rate of cancer cells in primary screening [5]: 1.00
Survival rate of cancer cells in primary screening [6]: 1.00
Survival rate of cancer cells in primary screening [7]: 1.00
Survival rate of cancer cells in primary screening [8]: 1.00
Survival rate of cancer cells in primary screening [9]: 1.00
Survival rate of cancer cells in primary screening [10]: 1.00
Survival rate of cancer cells in primary screening [11]: 1.00
Survival rate of cancer cells in primary screening [12]: 1.00
Survival rate of cancer cells in primary screening [13]: 1.00
Survival rate of cancer cells in primary screening [14]: 1.00
Survival rate of cancer cells in primary screening [15]: 1.00
Survival rate of cancer cells in primary screening [16]: 0.73

DRGERVAHGLDLLDGVVAEGVAAKGDDNTIGLAKRLRHCWNPFCKRPTTH [pACP253]
Survival rate of cancer cells in primary screening [1]: 1.00
Survival rate of cancer cells in primary screening [2]: 1.00
Survival rate of cancer cells in primary screening [3]: 1.00
Survival rate of cancer cells in primary screening [4]: 0.70
Survival rate of cancer cells in primary screening [5]: 1.00
Survival rate of cancer cells in primary screening [6]: 1.00
Survival rate of cancer cells in primary screening [7]: 1.00
Survival rate of cancer cells in primary screening [8]: 0.76
Survival rate of cancer cells in primary screening [9]: 1.00
Survival rate of cancer cells in primary screening [10]: 1.00
Survival rate of cancer cells in primary screening [11]: 1.00
Survival rate of cancer cells in primary screening [12]: 1.00
Survival rate of cancer cells in primary screening [13]: 1.00
Survival rate of cancer cells in primary screening [14]: 1.00
Survival rate of cancer cells in primary screening [15]: 1.00
Survival rate of cancer cells in primary screening [16]: 1.00

DSYGNRTEIERKIWRRYPCGYSCGTGEVKCDKEEWKKEYW [pACP264]
Survival rate of cancer cells in primary screening [1]: 1.00
Survival rate of cancer cells in primary screening [2]: 1.00
Survival rate of cancer cells in primary screening [3]: 1.00
Survival rate of cancer cells in primary screening [4]: 0.70
Survival rate of cancer cells in primary screening [5]: 1.00
Survival rate of cancer cells in primary screening [6]: 0.72
Survival rate of cancer cells in primary screening [7]: 1.00
Survival rate of cancer cells in primary screening [8]: 1.00
Survival rate of cancer cells in primary screening [9]: 1.00
Survival rate of cancer cells in primary screening [10]: 1.00
Survival rate of cancer cells in primary screening [11]: 1.00
Survival rate of cancer cells in primary screening [12]: 1.00
Survival rate of cancer cells in primary screening [13]: 1.00
Survival rate of cancer cells in primary screening [14]: 1.00
Survival rate of cancer cells in primary screening [15]: 1.00
Survival rate of cancer cells in primary screening [16]: 0.73

ERRVGYSWYGTWGNKVLKKYPEWLRRLTEKK [pACP341]
Survival rate of cancer cells in primary screening [1]: 1.00
Survival rate of cancer cells in primary screening [2]: 1.00
Survival rate of cancer cells in primary screening [3]: 1.00
Survival rate of cancer cells in primary screening [4]: 1.00
Survival rate of cancer cells in primary screening [5]: 1.00
Survival rate of cancer cells in primary screening [6]: 0.66
Survival rate of cancer cells in primary screening [7]: 0.60
Survival rate of cancer cells in primary screening [8]: 0.74
Survival rate of cancer cells in primary screening [9]: 1.00
Survival rate of cancer cells in primary screening [10]: 1.00
Survival rate of cancer cells in primary screening [11]: 1.00
Survival rate of cancer cells in primary screening [12]: 1.00
Survival rate of cancer cells in primary screening [13]: 1.00
Survival rate of cancer cells in primary screening [14]: 0.62
Survival rate of cancer cells in primary screening [15]: 1.00
Survival rate of cancer cells in primary screening [16]: 0.74

GLTSESVKSRCVKCLLYIKKSGATHDDNALHRTYCRNNCYRL [pACP550]
Survival rate of cancer cells in primary screening [1]: 1.00
Survival rate of cancer cells in primary screening [2]: 1.00
Survival rate of cancer cells in primary screening [3]: 1.00
Survival rate of cancer cells in primary screening [4]: 1.00
Survival rate of cancer cells in primary screening [5]: 1.00
Survival rate of cancer cells in primary screening [6]: 1.00
Survival rate of cancer cells in primary screening [7]: 1.00
Survival rate of cancer cells in primary screening [8]: 1.00
Survival rate of cancer cells in primary screening [9]: 1.00
Survival rate of cancer cells in primary screening [10]: 1.00
Survival rate of cancer cells in primary screening [11]: 1.00
Survival rate of cancer cells in primary screening [12]: 1.00
Survival rate of cancer cells in primary screening [13]: 1.00
Survival rate of cancer cells in primary screening [14]: 1.00
Survival rate of cancer cells in primary screening [15]: 1.00
Survival rate of cancer cells in primary screening [16]: 0.78

GNPAKQEIKVPGALGKGSCVQSGAGVGPRCRVPCGPLSGGMALFCYE [pACP555]
Survival rate of cancer cells in primary screening [1]: 1.00
Survival rate of cancer cells in primary screening [2]: 1.00
Survival rate of cancer cells in primary screening [3]: 1.00
Survival rate of cancer cells in primary screening [4]: 0.74
Survival rate of cancer cells in primary screening [5]: 1.00
Survival rate of cancer cells in primary screening [6]: 1.00
Survival rate of cancer cells in primary screening [7]: 1.00
Survival rate of cancer cells in primary screening [8]: 1.00
Survival rate of cancer cells in primary screening [9]: 1.00
Survival rate of cancer cells in primary screening [10]: 1.00
Survival rate of cancer cells in primary screening [11]: 1.00
Survival rate of cancer cells in primary screening [12]: 1.00
Survival rate of cancer cells in primary screening [13]: 1.00
Survival rate of cancer cells in primary screening [14]: 1.00
Survival rate of cancer cells in primary screening [15]: 1.00
Survival rate of cancer cells in primary screening [16]: 0.75

GVPMGSVIKKRRKRMAKKKHRKLLRKTRHQRRNKK [pACP593]
Survival rate of cancer cells in primary screening [1]: 1.00
Survival rate of cancer cells in primary screening [2]: 0.74
Survival rate of cancer cells in primary screening [3]: 1.00
Survival rate of cancer cells in primary screening [4]: 0.71
Survival rate of cancer cells in primary screening [5]: 1.00
Survival rate of cancer cells in primary screening [6]: 1.00
Survival rate of cancer cells in primary screening [7]: 1.00
Survival rate of cancer cells in primary screening [8]: 1.00
Survival rate of cancer cells in primary screening [9]: 1.00
Survival rate of cancer cells in primary screening [10]: 1.00
Survival rate of cancer cells in primary screening [11]: 1.00
Survival rate of cancer cells in primary screening [12]: 1.00
Survival rate of cancer cells in primary screening [13]: 1.00
Survival rate of cancer cells in primary screening [14]: 0.78
Survival rate of cancer cells in primary screening [15]: 0.63
Survival rate of cancer cells in primary screening [16]: 1.00
